In patent publication US20220395451A1, “NOVEL SKIN CARE COMPOSITION” (BEIERSDORF AG, priority 2019, published 2022):
Where “and” joins values, the source holds several entries; their conditions need not be identical. Identical values can stand only once.

How the values were obtained:
C. acnes strain K8 = assay: Minimum inhibitory concentration (MIC) of cosmetic excipients, strain K8; type: cell-based, Cutibacterium acnes; conditions: % w/vol; anaerobic incubation 3 days at 37° C.; growth scored visually
Protocol: (§1) In microbiology, the MIC is the lowest concentration of a chemical which prevents visible growth of bacterium. The resulted MIC value depends both on the microorganism and the test compound. The MIC is determined by preparing concentrations series of the test compound in vitro, incubating the solutions with the separate batches of cultured bacteria, and measuring the results using agar dilution or broth microdilution. For the experiments with C. acnes strains C3 and K8, media comprising yeast extract soy peptone and dextrose were used. The MIC is determined by turbidity.
(§2) A total of 125 cosmetic excipients were tested for their compatibility with C. acnes strains C3 and K8. Hydrophilic compounds were tested in a 96-well plate liquid broth format, poorly soluble compounds were pre-dissolved in DMSO before dilution in liquid broth and hydrophobic or solid compounds were tested in an agar well diffusion test assay. The different dilutions of the test excipients in media were prepared in Falcon tubes and then distributed in a deep well plate using a multistepper. Each well received 1.2 ml and was subsequently inoculated with 120 μl of C. acnes bacteria suspension (strain C3 and K8). From the deep well plate 200 μl were transferred in each well of a clear 96 well replicate plate. The leftover was discarded. The plates were then incubated anaerobically for 3 days at 37° C. Following incubation, the test plates were visually examined and wells were scored for growth or complete growth inhibition to define the minimum inhibitory concentration.
(§3) These excipients are listed in the below table with their compatibility values for C. acnes strains C3 and K8. The compatibility values represent the MIC value of the listed ingredients with the tested C. acnes strains. At this concentration [% w/vol] the tested compound starts interfering with the growth of the tested strains. The compounds can be used in formulations at concentrations below this concentration.

C. acnes strain C3 = assay: Minimum inhibitory concentration (MIC) of cosmetic excipients, strain C3; type: cell-based, Cutibacterium acnes; conditions: % w/vol; anaerobic incubation 3 days at 37° C.; growth scored visually
Protocol: as §1, §2, §3

Row | Compound | COMPATABILITY VALUE C3 (MIC) (C. acnes strain K8) | COMPATABILITY VALUE C3 (MIC) (C. acnes strain C3) | COM[…] C3 (MIC) (C. acnes strain K8) | COM[…] C3 (MIC) (C. acnes strain C3)
1 | CCCCCCC(O)CO (stereo not shown) [caprylyl glycol] | 0.18% | 0.18% | – | –
2 | O=C(O)CC(O)(CC(=O)O)C(=O)O [citric acid] | 0.08% | 0.33% | – | –
3 | CCO [ethanol] | 3.75% | – | – | –
4 | CC(CO)CO [methylpropanediol] | 4.00% | 4.00% | – | –
5 | CC(=O)Oc1c(C)c(C)c2c(c1C)CCC(C)(CCC[C@H](C)CCC[C@H](C)CCCC(C)C)O2 (stereo partly shown) [tocopheryl acetate] | 1.00% | 1.00% | – | –
6 | Citric acid/citrate | – | – | 1.30% | 1.30%
7 | tocopherol | 1.50% and 10.00% | 1.50% and 10.00% | – | –
